ChEMBL document CHEMBL3407349, “The discovery of Polo-like kinase 4 inhibitors: identification of (1R,2S).2-(3-((E).4-(((cis).2,6-dimethylmorpholino)methyl)styryl). 1H.indazol-6-yl)-5'-methoxyspiro[cyclopropane-1,3'-indolin]-2'-one (CFI-400945) as a potent, orally active antitumor agent” (J Med Chem, 2015)

Key:
MDA-MB-231 = assay: Growth inhibition of human MDA-MB-231 cells after 5 days by SRB assay; type: functional
HCC1954 = assay: Growth inhibition of human HCC1954 cells after 5 days by SRB assay; type: functional
[1] = Cmax in athymic CD1 nude mouse at 25 mg/kg, po by LC/MS/MS analysis; type: ADME, organism-based; set-up: dose 25 mg/kg, route oral; settings: in vivo
[2] = Half life in human liver microsomes
[3] = Half life in mouse liver microsomes
Cytochrome P450 2C9 = Cytochrome P450 2C9 (Homo sapiens, UniProt P11712); assay: Inhibition of CYP2C9 (unknown origin) by fluorescence assay
MCF7 = assay: Growth inhibition of human MCF7 cells after 5 days by SRB assay; type: functional
Cytochrome P450 2D6 = Cytochrome P450 2D6 (Homo sapiens, UniProt P10635); assay: Inhibition of CYP2D6 (unknown origin) by fluorescence assay; type: ADME
Cytochrome P450 1A2 = target: T1, Cytochrome P450 1A2 (Homo sapiens, UniProt P05177); assay: Inhibition of CYP1A2 (unknown origin) by fluorescence assay; type: ADME
T1 sequence (P05177 whole entry): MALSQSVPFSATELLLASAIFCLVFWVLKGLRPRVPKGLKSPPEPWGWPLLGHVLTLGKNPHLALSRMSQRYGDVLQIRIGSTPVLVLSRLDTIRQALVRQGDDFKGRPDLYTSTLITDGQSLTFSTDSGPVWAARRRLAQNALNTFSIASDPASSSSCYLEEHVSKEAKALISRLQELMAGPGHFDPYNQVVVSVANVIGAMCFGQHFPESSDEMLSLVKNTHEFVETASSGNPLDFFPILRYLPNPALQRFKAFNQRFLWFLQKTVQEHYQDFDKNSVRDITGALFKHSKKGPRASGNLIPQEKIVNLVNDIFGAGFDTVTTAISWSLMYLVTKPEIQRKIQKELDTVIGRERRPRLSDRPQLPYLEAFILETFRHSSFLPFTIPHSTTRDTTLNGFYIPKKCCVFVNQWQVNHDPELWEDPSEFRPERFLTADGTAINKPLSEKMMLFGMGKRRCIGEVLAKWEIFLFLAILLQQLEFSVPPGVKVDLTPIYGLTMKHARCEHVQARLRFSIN

Cytochrome P450 3A4 [4] = target: T2, Cytochrome P450 3A4 (Homo sapiens, UniProt P08684); assay: Inhibition of CYP3A4 (unknown origin) using DBF as substrate by fluorescence assay
[5] = Growth inhibition of human HMEC cells after 5 days by SRB assay; type: cell-based; settings: HMEC cells
Cytochrome P450 3A4 [6] = target: T2, Cytochrome P450 3A4; assay: Inhibition of CYP3A4 (unknown origin) using BFC as substrate by fluorescence assay
[7] = AUC in athymic CD1 nude mouse at 25 mg/kg, po by LC/MS/MS analysis; type: ADME, organism-based; set-up: dose 25 mg/kg, route oral; settings: plasma
Cytochrome P450 2C19 = Cytochrome P450 2C19 (Homo sapiens, UniProt P33261); assay: Inhibition of CYP2C19 (unknown origin) by fluorescence assay
MDA-MB-468 = assay: Growth inhibition of human MDA-MB-468 cells after 5 days by SRB assay; type: functional
[8] = target: T3, Serine/threonine-protein kinase PLK4 (Homo sapiens, UniProt O00444); assay: Inhibition of PLK4 (unknown origin) by ELISA
T3 sequence (O00444 whole entry): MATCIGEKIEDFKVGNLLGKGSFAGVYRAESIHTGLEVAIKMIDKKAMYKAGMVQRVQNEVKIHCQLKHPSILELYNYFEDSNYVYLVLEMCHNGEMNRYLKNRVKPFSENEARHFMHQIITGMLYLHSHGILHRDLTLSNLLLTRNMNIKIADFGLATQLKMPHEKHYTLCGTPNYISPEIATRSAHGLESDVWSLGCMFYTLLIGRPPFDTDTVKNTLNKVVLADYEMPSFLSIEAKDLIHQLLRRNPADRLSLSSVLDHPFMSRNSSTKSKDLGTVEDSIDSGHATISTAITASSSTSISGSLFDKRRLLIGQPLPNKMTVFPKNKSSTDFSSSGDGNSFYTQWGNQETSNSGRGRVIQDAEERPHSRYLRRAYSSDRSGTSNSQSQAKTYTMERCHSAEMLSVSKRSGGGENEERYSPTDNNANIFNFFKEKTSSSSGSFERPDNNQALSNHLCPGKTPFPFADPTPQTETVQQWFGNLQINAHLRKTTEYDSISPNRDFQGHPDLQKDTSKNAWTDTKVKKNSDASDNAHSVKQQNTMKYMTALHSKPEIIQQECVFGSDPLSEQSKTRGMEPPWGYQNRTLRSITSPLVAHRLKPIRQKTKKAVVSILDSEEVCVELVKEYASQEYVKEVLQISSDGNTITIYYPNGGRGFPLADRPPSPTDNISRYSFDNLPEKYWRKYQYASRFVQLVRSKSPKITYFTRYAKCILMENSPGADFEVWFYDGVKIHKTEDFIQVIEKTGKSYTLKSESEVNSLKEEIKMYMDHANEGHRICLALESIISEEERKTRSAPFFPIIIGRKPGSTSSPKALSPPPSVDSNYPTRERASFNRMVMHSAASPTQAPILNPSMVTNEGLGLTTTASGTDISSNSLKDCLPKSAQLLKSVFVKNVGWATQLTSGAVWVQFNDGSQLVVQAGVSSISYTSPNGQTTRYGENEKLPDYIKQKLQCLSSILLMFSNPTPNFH

[9] = Half life in rat liver microsomes; settings: liver microsomes
[10] = Half life in dog liver microsomes; settings: liver microsomes
[11] = Homo sapiens, MDA-MB-231, 120 h
[12] = Homo sapiens, MDA-MB-468, 120 h

Chain of Cytochrome P450 2C19 (P33261 whole entry): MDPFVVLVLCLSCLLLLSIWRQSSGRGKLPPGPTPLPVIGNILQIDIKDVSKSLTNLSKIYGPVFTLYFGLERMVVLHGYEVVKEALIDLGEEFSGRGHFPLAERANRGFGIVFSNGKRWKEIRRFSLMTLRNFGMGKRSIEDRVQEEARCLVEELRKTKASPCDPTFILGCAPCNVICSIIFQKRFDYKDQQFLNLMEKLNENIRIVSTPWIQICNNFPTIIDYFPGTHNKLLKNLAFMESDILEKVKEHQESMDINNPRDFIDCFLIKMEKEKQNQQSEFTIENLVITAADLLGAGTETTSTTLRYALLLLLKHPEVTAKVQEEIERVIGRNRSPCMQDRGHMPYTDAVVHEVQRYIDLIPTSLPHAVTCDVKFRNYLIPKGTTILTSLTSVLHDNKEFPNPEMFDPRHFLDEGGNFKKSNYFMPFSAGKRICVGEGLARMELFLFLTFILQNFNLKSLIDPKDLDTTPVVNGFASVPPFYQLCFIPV
Chain of Cytochrome P450 2D6 (P10635 whole entry): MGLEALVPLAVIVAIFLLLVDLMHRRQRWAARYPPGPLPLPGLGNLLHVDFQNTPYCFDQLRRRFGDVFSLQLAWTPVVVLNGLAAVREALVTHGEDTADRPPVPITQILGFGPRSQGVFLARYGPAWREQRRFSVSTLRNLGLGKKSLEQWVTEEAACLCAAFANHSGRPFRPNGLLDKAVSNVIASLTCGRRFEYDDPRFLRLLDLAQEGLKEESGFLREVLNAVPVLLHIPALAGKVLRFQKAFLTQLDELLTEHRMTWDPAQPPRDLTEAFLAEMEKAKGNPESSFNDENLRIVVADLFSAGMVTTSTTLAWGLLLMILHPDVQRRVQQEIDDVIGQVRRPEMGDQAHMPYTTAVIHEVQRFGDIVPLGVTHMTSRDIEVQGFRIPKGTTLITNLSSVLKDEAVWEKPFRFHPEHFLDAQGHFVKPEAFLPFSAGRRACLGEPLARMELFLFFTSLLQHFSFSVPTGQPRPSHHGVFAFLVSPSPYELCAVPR
T2 sequence (P08684 whole entry): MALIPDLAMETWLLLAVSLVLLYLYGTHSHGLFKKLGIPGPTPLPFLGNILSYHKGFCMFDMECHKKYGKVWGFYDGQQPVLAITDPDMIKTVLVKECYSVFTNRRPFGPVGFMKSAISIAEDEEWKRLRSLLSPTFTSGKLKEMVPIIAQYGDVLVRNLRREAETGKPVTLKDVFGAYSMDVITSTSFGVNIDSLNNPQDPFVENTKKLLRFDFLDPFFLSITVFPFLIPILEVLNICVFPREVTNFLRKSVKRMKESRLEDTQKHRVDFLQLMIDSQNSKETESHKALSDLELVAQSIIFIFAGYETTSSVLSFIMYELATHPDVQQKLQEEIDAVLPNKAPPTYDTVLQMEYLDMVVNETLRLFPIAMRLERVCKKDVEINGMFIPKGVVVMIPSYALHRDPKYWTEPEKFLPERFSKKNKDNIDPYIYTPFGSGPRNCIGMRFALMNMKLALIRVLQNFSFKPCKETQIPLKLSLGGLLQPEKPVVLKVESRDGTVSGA
Chain of Cytochrome P450 2C9 (P11712 whole entry): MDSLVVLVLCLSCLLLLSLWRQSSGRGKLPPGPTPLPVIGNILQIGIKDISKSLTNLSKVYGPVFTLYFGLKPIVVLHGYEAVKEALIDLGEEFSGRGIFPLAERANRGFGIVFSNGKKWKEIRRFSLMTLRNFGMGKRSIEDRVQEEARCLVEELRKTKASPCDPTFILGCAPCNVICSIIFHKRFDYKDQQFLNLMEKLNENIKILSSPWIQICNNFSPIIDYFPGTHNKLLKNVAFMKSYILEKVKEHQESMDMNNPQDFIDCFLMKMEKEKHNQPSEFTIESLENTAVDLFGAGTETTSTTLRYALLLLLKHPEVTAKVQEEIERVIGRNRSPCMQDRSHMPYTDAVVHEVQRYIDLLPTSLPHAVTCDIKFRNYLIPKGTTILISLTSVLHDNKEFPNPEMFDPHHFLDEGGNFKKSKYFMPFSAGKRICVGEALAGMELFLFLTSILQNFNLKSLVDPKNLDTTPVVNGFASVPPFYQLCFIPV

Row | Compound | GI50 (MDA-MB-231; [11]) [nM] | GI50 (HCC1954; Homo sapiens, HCC1954, 120 h) [nM] | Cmax [1] [ng/mL] | half-life ([2]; liver microsomes) [min] | half-life ([3]; liver microsomes) [min] | IC50 (Cytochrome P450 2C9) [nM] | GI50 (MCF7; Homo sapiens, MCF7, 120 h) [nM] | inhibition (INH) (Cytochrome P450 2D6) | inhibition (INH) (Cytochrome P450 1A2) | IC50 (Cytochrome P450 3A4 [4]) [nM] | GI50 at 120 h [5] [nM] | AUC [7] [ng·h/mL] | IC50 (Cytochrome P450 2C19) [nM] | GI50 (MDA-MB-468; [12]) [nM] | IC50 [8] [nM] | other results
1 | COc1ccc2c(c1)[C@]1(C[C@H]1c1ccc3c(/C=C/c4ccc(N5CCN(C)CC5)nc4)n[nH]c3c1)C(=O)N2 | 2600 | 2 | 200 | 11 | 6 | 2000 | < 1 | Not Active | Not Active | 5600 | 47000 | 380 | 1500 | < 1 |  | IC50 (Cytochrome P450 3A4 [6]): 10000 nM
2 | O=C1Nc2ccccc2[C@]12C[C@H]2c1ccc2c(/C=C/c3cccnc3)n[nH]c2c1 | 1000 | 7500 |  |  |  |  | 2000 |  |  |  | 4400 |  |  | 60 |  | 
3 | COc1ccc2c(c1)[C@]1(C[C@H]1c1ccc3c(/C=C/c4ccc(CN(C)C)cc4)n[nH]c3c1)C(=O)N2 | 2800 | 5000 | 300 | 36 | 22 | 3500 | 0.1 | Not Active | Not Active | 7500 | 41000 | 640 | 2000 | < 1 |  | 
4 | O=C1Nc2ccccc2[C@]12C[C@H]2c1ccc2c(/C=C/c3ccc(CN4CCCC4)cc3)n[nH]c2c1 | 250 | 26 |  |  |  |  | 370 |  |  |  | 3600 |  |  | < 1 |  | 
5 | O=C1Nc2ccccc2[C@]12C[C@H]2c1ccc2c(/C=C/c3ccc(CN4CCCCC4)cc3)n[nH]c2c1 | 2200 | 5000 |  |  |  |  | < 1 |  |  |  | 20000 |  |  | < 1 |  | 
6 | CN1CCN(c2ccc(/C=C/c3n[nH]c4cc([C@@H]5C[C@@]56C(=O)N(C)c5ccccc56)ccc34)cn2)CC1 | 600 | 5 | 700 | 27 | 7 | 3800 | 20 | Not Active | Not Active | 2900 |  | 1600 | 1200 | 1 | 1.3 | IC50 (Cytochrome P450 3A4 [6]): 300 nM
7 | O=C1Nc2ccccc2[C@]12C[C@H]2c1ccc2c(/C=C/c3ccc(N4CCNCC4)cc3)n[nH]c2c1 | 23 | 260 | 120 |  |  | 1700 | 20 | Not Active | Not Active | 2800 | 21000 | 340 | 900 | 2 | 0.9 | half-life ([2]; microsomes): 46 min; half-life ([3]; microsomes): 19 min
8 | CN(C)Cc1ccc(/C=C/c2n[nH]c3cc([C@@H]4C[C@@]45C(=O)N(C)c4ccccc45)ccc23)cc1 | 750 | 7 | 510 |  |  | 2600 | 1.5 | Not Active | Not Active | > 1000 | 8000 | 1100 | 1900 | 2 |  | half-life ([2]; microsomes): 44 min; half-life ([3]; microsomes): 12 min; IC50 (Cytochrome P450 3A4 [6]): 2300 nM
9 | O=C1Nc2ccccc2[C@]12C[C@H]2c1ccc2c(/C=C/c3ccc(CN4CC[C@@H](F)C4)cc3)n[nH]c2c1 | 5600 | 22 | 790 | 52 | 17 | 900 | 34000 | Not Active | Not Active |  | 7900 | 1800 | 1500 | 6.7 |  | 
10 | COc1ccc2c(c1)[C@]1(C[C@H]1c1ccc3c(/C=C/c4ccc(CN5CCCCC5)cc4)n[nH]c3c1)C(=O)N2 | 1600 | 5000 | 510 | 49 | 40 | 3400 | < 1 | Not Active | Not Active | 5400 | 50000 | 1300 | 1400 | < 1 |  | IC50 (Cytochrome P450 3A4 [6]): > 1000 nM
11 | O=C1Nc2ccccc2[C@]12C[C@H]2c1ccc2c(/C=C/c3cccc(CN4CCOCC4)c3)n[nH]c2c1 | 2200 | 1600 |  |  |  |  | 350 |  |  |  | 50000 |  |  | 130 |  | 
12 | C[C@@H]1CN(Cc2cccc(/C=C/c3n[nH]c4cc([C@@H]5C[C@@]56C(=O)Nc5ccccc56)ccc34)c2)C[C@H](C)O1 | 9600 | 84 |  |  |  |  | 1300 |  |  |  |  |  |  | 1100 | 20 | 
13 | O=C1Nc2ccccc2[C@]12C[C@H]2c1ccc2c(/C=C/c3ccc(CN4CC5CCC(C4)O5)cc3)n[nH]c2c1 | 4100 | 53 |  |  |  |  | 170 |  |  |  |  |  |  | 61 | 5.2 | 
14 | O=C1Nc2ccccc2[C@]12C[C@H]2c1ccc2c(/C=C/c3ccc(CN4CCCOCC4)cc3)n[nH]c2c1 | 3000 | 1800 |  |  |  |  | 1000 |  |  |  |  |  |  | 2 |  | 
15 | C[C@@H]1CN(Cc2ccc(/C=C/c3n[nH]c4cc([C@@H]5C[C@@]56C(=O)Nc5ccccc56)ccc34)cc2)C[C@H](C)N1C | 500 | 1300 |  |  |  |  | 2500 |  |  |  |  |  |  | 10 | 0.64 | 
16 | COc1ccc2c(c1)[C@]1(C[C@H]1c1ccc3c(/C=C/c4ccc(CN5[C@H](C)CN(C)C[C@@H]5C)cc4)n[nH]c3c1)C(=O)N2 | 2200 | 2300 | 1300 | > 60 | 38 | 560 | 2500 | Not Active | Not Active | 1600 |  | 2200 | 810 | 10 | 0.39 | half-life [9]: 49 min; half-life [10]: 39 min; IC50 (Cytochrome P450 3A4 [6]): 10000 nM
17 | CN1CCC(Oc2ccc(/C=C/c3n[nH]c4cc([C@@H]5C[C@@]56C(=O)Nc5ccccc56)ccc34)cc2)CC1 | 920 | 770 |  |  |  |  | 2400 |  |  |  |  |  |  | 2 |  | 
18 | CN(C)Cc1ccc(/C=C/c2n[nH]c3cc([C@@H]4C[C@@]45C(=O)Nc4ccccc45)ccc23)cc1 (racemic) |  | 1900 |  |  |  |  |  |  |  |  | 28000 |  |  |  |  | GI50 (MDA-MB-231): 12000 nM
19 | COc1ccc2c(c1)[C@]1(C[C@H]1c1ccc3c(/C=C/c4ccc(CN5CCOCC5)cc4)n[nH]c3c1)C(=O)N2 (racemic) |  |  |  |  |  |  |  |  |  |  |  |  |  |  |  | GI50 (MDA-MB-231): 14000 nM; GI50 (HCC1954): 7300 nM; GI50 (MCF7): 10 nM; GI50 (MDA-MB-468): 6 nM
